# According to US20070259844A1, “Antiviral Compositions And Methods Of Using The Same” (VGX PHARMACEUTICALS, priority 2003, published 2007):
# Key:
# [1] = system: HCV RNA-replicating cell line AVA5; assay: Primary in vitro anti-HCV screen, intracellular HCV RNA levels in AVA5 cells; type: cell-based
# Method: (§1) The antiviral activity of test compounds are assayed in the stably HCV RNA-replicating cell line, AVA5, derived by transfection of the human hepatoblastoma cell line, Huh7 (Blight, et al., 2000, Sci. 290:1972). Compounds are added to dividing cultures once daily for three days (media is changed with each addition of compound). Cultures generally start the assay at 50% confluence and reach confluence during the last day of treatment. Intracellular HCV RNA levels and cytotoxicity are assessed 24 hours after the last dose of compound.
# (§2) Assays are conducted using a single dose of test compound. Replicate cultures for HCV RNA levels (on 48-well plates) and triplicate cultures for cytoxicity (on 96-well plates) are used.
# Intracellular HCV RNA levels are measured using standard blot hybridization (Korba & Gerin, 1992, Antivir. Res. 19:55) using triplicate cultures. HCV RNA levels in the treated cultures are expressed as a percentage of the mean levels of RNA detected in untreated cultures. Levels of β-actin RNA are used to normalize HCV RNA levels in each sample.
# [2] = Cytotoxicity in the anti-HCV screen (AVA5 cultures); type: cell-based, human; settings: human, AVA5 cells (stably HCV RNA-replicating, derived from Huh7); toxicity control, AVA5 cells, once daily for three days; read-out: approximate CC90
# Method: as §1, §2
# [3] = molecular target: T1, human glucocorticoid receptor (Homo sapiens, UniProt P04150); settings: cited from earlier work
# T1 sequence (P04150 1-777): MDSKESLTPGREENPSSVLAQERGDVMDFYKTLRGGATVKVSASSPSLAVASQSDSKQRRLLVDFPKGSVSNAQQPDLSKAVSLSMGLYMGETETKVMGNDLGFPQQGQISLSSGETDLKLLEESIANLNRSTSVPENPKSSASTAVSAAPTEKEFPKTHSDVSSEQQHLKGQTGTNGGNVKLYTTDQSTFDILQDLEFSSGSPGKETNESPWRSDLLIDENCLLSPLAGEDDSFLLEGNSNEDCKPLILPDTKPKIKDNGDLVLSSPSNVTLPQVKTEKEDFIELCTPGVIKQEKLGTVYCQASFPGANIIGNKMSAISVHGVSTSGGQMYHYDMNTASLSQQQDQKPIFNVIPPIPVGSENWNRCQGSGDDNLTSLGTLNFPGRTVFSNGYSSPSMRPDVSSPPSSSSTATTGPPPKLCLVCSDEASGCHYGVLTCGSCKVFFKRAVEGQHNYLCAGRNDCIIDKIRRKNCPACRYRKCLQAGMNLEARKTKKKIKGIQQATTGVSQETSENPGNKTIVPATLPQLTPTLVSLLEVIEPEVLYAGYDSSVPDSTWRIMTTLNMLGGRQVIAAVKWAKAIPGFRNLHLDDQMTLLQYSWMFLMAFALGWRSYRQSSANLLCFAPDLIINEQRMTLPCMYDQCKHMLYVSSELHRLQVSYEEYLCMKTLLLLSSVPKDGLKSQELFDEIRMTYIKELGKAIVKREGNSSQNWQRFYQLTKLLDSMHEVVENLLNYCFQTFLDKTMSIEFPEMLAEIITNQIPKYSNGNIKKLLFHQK
# [4] = system: AVA5 cells (derived from human hepatoblastoma cell line Huh7); assay: Cytotoxicity in the anti-HCV screen (AVA5 cultures); type: cell-based; settings: 10 IU/ml
# Method: as §1, §2
compound,measurement,setting,value
"NC(=O)c1ncn([C@@H]2O[C@H](CO)[C@@H](O)[C@H]2O)n1 [ribavirin, reference compound]",antiviral activity at the CC90,[1]; 100 μM,no antiviral activity
same,CC90 at 3 days,[2],~100 µM
"C[C@]12CCC(=O)C=C1CC[C@@H]1[C@@H]2[C@@H](O)C[C@@]2(C)[C@H]1CC[C@]2(O)C(=O)CO [cortisol, reference compound]",relative binding affinity to the human glucocorticoid receptor,[3],23%
α-interferon,approximate EC90,"[1]; positive antiviral control, AVA5 cells, once daily for three days",~10 IU/ml
same,cytotoxicity at the EC90,[4],no cytotoxicity
